Measured values taken from the NIST ThermoML archive (doi:10.1021/je300972a).
± gives the expanded uncertainty stated by the source.

Columns and labels:
[1] = 101 kPa, Liquid; for viscosity: Falling or rolling sphere viscometry; for mass density: Vibrating tube method
[2] = refractive index (Na D-line) (dimensionless); settings: 101.33 kPa, Liquid, Standard Abbe refractometry
[3] = xn = mol fraction of the nth substance listed; settings: 101 kPa, Liquid, x1 = 1; for viscosity: Falling or rolling sphere viscometry; for mass density: Vibrating tube method
[4] = refractive index (Na D-line) (dimensionless); xn = mol fraction of the nth substance listed; settings: 101 kPa, Liquid, Standard Abbe refractometry, x1 = 1

CCCC[n+]1ccccc1.F[B-](F)(F)F [1-butylpyridinium tetrafluoroborate]
Settings	mass density, [1] [kg/m3]	refractive index, [2]	viscosity, [1] [mPa·s]
293.15 K	1217.1 ± 1.6	1.447 ± 0.0007	227.1 ± 12
303.15 K	1210.3 ± 1.6	1.4444 ± 0.0007	123.6 ± 4.6
313.15 K	1203.5 ± 1.6	1.4418 ± 0.0007	74.8 ± 2.1
323.15 K	1196.7 ± 1.6	1.4392 ± 0.0007	48.1 ± 1.2
333.15 K	1189.9 ± 1.6	1.4366 ± 0.0007	33 ± 0.8
343.15 K	1183.2 ± 1.6	1.4341 ± 0.0007	23.8 ± 0.6
353.15 K	1176.5 ± 1.6	1.4315 ± 0.0007	17.7 ± 0.5

CCCC[n+]1ccccc1.F[B-](F)(F)F [1-butylpyridinium tetrafluoroborate] + CCCC[n+]1ccc(C)cc1.O=S(=O)([N-]S(=O)(=O)C(F)(F)F)C(F)(F)F
Settings	mass density, [3] [kg/m3]	refractive index, [4]	viscosity, [3] [mPa·s]
293.15 K	1217.1 ± 1.6	1.447 ± 0.0007	227.1 ± 12
303.15 K	1210.3 ± 1.6	1.4444 ± 0.0007	123.6 ± 4.6
313.15 K	1203.5 ± 1.6	1.4418 ± 0.0007	74.8 ± 2.1
323.15 K	1196.7 ± 1.6	1.4392 ± 0.0007	48.1 ± 1.2
333.15 K	1189.9 ± 1.6	1.4366 ± 0.0007	33 ± 0.8
343.15 K	1183.2 ± 1.6	1.4341 ± 0.0007	23.8 ± 0.6
353.15 K	1176.5 ± 1.6	1.4315 ± 0.0007	17.7 ± 0.5

CCCC[n+]1ccc(C)cc1.O=S(=O)([N-]S(=O)(=O)C(F)(F)F)C(F)(F)F
Settings	mass density, [1] [kg/m3]	refractive index, [2]	viscosity, [1] [mPa·s]
293.15 K	1416.6 ± 1.7	1.448 ± 0.0007	70.6 ± 1.9
303.15 K	1407.3 ± 1.7	1.4449 ± 0.0007	45.2 ± 1.2
313.15 K	1398.1 ± 1.7	1.4419 ± 0.0007	30.6 ± 0.8
323.15 K	1388.8 ± 1.7	1.4388 ± 0.0007	21.8 ± 0.6
333.15 K	1379.7 ± 1.7	1.4358 ± 0.0007	16.1 ± 0.4
343.15 K	1370.5 ± 1.7	1.4328 ± 0.0007	12.3 ± 0.3
353.15 K	1361.5 ± 1.7	1.4298 ± 0.0007	9.8 ± 0.3
